Here are results for 41 compounds from patent publication US7115642B2, “Substituted diphenyl isoxazoles, pyrazoles and oxadiazoles useful for treating HCV infection” (priority 2003, dated 2006).

In general, IC50 refers to the concentration that gives 50% inhibition.

Like-named read-outs stand apart in the source and are kept apart here.

The subject of the assay is HCV replicon (5-2 Luc replicon-comprising cells). Kind of assay: HCV replicon assay (luciferase). Conditions: 5-2 Luc replicon cells, luciferase readout, read-out: Replicon IC50. Type of assay: cell-based, Hepatitis C virus. The text has this:
In one embodiment, the inhibitory activity of the compounds can be confirmed in a replicon assay that assesses the ability of a test compound to block or inhibit HCV replication in replicon cells. One example of a suitable replicon assay is the liver cell-line Huh 7-based replicon assay described in Lohmann et al., 1999, Science 285:110–113. A specific example of this replicon assay which utilizes luciferase translation is provided in the Examples Section. In one embodiment of this assay, the amount of test compound that yields a 50% reduction in translation as compared to a control cell (IC50) may be determined.
The inhibitory activity of certain exemplary compounds of the invention was confirmed using an HCV replicon assay. The HCV replicon can include such features as the HCV 5′ untranslated region including the HCV IRES, the HCV 3′ untranslated region, selected HCV genes encoding HCV polypeptides, selectable markers, and a reporter gene such as luciferase, GFP, etc. In the assay, actively dividing 5-2 Luc replicon-comprising cells (obtained from Ralf Bartenschlager; see Lohmann et al., 1999, Science 285:110–113) were seeded at a density of between about 5,000 and 7,500 cells/well onto 96 well plates (about 90 μl of cells per well) and incubated at 37° C. and 5% CO2 for 24 hours. Then, the test compound (in a volume of about 10 μl) was added to the wells at various concentrations and the cells were incubated for an additional 24 hours before luciferase assay. Briefly, the Bright-Glo reagent was diluted 1:1 with PBS and 100 μl of diluted reagent was added to each well. After 5 min of incubation at room temperature, luciferin emission was quantified with a luminometer. In this assay, the amount of test compound that yielded a 50% reduction in luciferase activity (IC50) was determined.
In TABLE 1, a value of “+” indicates an IC50 of 10 μM or less in the specified assay; a value of “−” indicates an IC50 of greater than 10 μM in the specified assay.
Background: In antiviral work, replicon cells carry a viral genome segment that copies itself.

`CN(C)C1CCN(c2cccc(Cl)c2-c2cc(-c3cccc(NC(=O)C(Cl)Cl)c3)on2)C1` (racemic) [Compound 132, (±)-2,2-Dichloro-N-[3-[3-[2-chloro-6-(3-dimethylamino-N-pyrrolidino)phenyl]-5-isoxazolyl]-phenyl]Acetamide]: the IC50 was less than 10 µM. Still for that read-out and setting: next, `Cc1cc(OCCN2CCOCC2)cc(C)c1-c1cc(-c2cccc(NC(=O)C(Cl)Cl)c2)on1` [Compound 23, 2,2-Dichloro-N-[3-[3-[2,6-dimethyl-4-(N-morpholino-2-ethyleneoxy)phenyl]-5-isoxazolyl]phenyl]Acetamide]: less than 10 µM; `CN(C(=O)C(Cl)Cl)c1cccc(-c2cc(-c3c(Cl)cccc3Cl)no2)c1` [Compound 57, 2,2-Dichloro-N-[3-[3-(2,6-dichlorophenyl)-5-isoxazolyl]phenyl]-N-methyl Acetamide]: less than 10 µM; `O=C(Nc1cccc(-c2cc(-c3c(Cl)cc(OCCCN4CCOCC4)cc3Cl)no2)c1)C(Cl)Cl` [Compound 73, 2,2-Dichloro-N-[3-[3-[2,6-dichloro-4-(N-morpholinopropyleneoxy)phenyl]-5-isoxazolyl]-phenyl]Acetamide]: less than 10 µM. Turning to `O=C(Nc1cccc(-c2noc(-c3c(Cl)cccc3Cl)n2)c1)C(Cl)Cl` [Compound 87, 2,2-Dichloro-N-[3-[5-(2,6-dichlorophenyl)-3-(1,2,4-oxadiazolyl)]phenyl]Acetamide], the 50% inhibitory concentration (IC50) is less than 10 µM.

`O=C(Nc1cccc(-c2cc(-c3c(Cl)cccc3OCCN3CCOCC3)no2)c1)C(Cl)Cl` [Compound 95, 2,2-Dichloro-N-[3-[3-[2-chloro-6-(N-morpholino-2-ethyleneoxy)phenyl]-5isoxazolyl]-phenyl]Acetamide]: the IC50 is less than 10 µM. For the compound `CN1CCN(c2cccc(Cl)c2-c2cc(-c3cccc(NC(=O)C(Cl)Cl)c3)on2)CC1` [Compound 99, 2,2-Dichloro-N-[3-[3-[2-chloro-6-(4-methylpiperazino)phenyl]-5-isoxazolyl]phenyl]Acetamide], the half-maximal inhibitory concentration (IC50) (Hepatitis C virus) was less than 10 µM. The same measure, in the same setting: in the case of `O=C(Nc1ccc(S(=O)(=O)NN2CCOCC2)c(-c2cc(-c3c(Cl)cccc3Cl)no2)c1)C(Cl)Cl` [Compound 107, 2,2-Dichloro-N-[3-[3-(2,6-dichlorophenyl)-5-isoxazolyl]4-(N-morpholinosulfamoyl)-phenyl]Acetamide] it was less than 10 µM.

In the case of `COC(=O)c1ccccc1-c1cc(-c2cccc(NC(=O)C(Cl)Cl)c2)on1` [Compound 115, 2,2-Dichloro-N-[3-[3-(2-carbomethoxy)phenyl-5-isoxazolyl]phenyl]Acetamide], the IC50 is less than 10 µM. `O=C(Nc1cccc(-c2cc(-c3c(Cl)cccc3-n3ccnc3)no2)c1)C(Cl)Cl` [Compound 117, 2,2-Dichloro-N-[3-[3-[2-chloro-6-(N-imidazolyl)phenyl]-5-isoxazolyl]phenyl]Acetamide]: the IC50 (Hepatitis C virus) was less than 10 µM. In the case of `O=C(Nc1cccc(-c2cc(-c3ccccc3-c3ccccc3)no2)c1)C(Cl)Cl` [Compound 123, 2,2-Dichloro-N-[3-[3-(2-phenyl)phenyl-5-isoxazolyl]phenyl]Acetamide], the IC50 was less than 10 µM.

Regarding `O=C(Nc1cccc(-c2cc(-c3c(Cl)cc(OCCN4CCCCC4)cc3Cl)no2)c1)C(Cl)Cl` [Compound 125, 2,2-Dichloro-N-[3-[3-[2,6-dichloro-4-(N-piperidinylethylenoxy)phenyl]-5-isoxazolyl]-phenyl]Acetamide], the IC50 is less than 10 µM. Regarding `CN(C)CCN(C)c1cccc(Cl)c1-c1cc(-c2cccc(NC(=O)C(Cl)Cl)c2)on1` [Compound 131, 2-Dichloro-N-[3-[3-[2-chloro-6-(N,N-dimethylethylene-N′-methylamino)phenyl]-5-isoxazolyl]-phenyl]Acetamide], the IC50 was less than 10 µM.

As for `O=C(Nc1cccc(-c2cc(-c3c(Cl)cc(Cl)cc3OCCN3CCOCC3)no2)c1)C(Cl)Cl` [Compound 143, 2,2-Dichloro-N-[3-[3-[2,4-dichloro-6-(N-morpholino-2-ethyleneoxy)phenyl]-5-isoxazolyl]-phenyl]Acetamide], the IC50 was more than 10 µM. In the case of `CCOC(=O)C1CCN(c2cccc(Cl)c2-c2cc(-c3cccc(NC(=O)C(Cl)Cl)c3)on2)CC1` [Compound 151, 2,2-Dichloro-N-[3-[3-[2-chloro-6-(4-carboethoxypiperidino)phenyl]-5-isoxazolyl]-phenyl]Acetamide], the IC50 (Hepatitis C virus) was more than 10 µM. Regarding `CS(=O)(=O)c1cccc(F)c1-c1cc(-c2cccc(NC(=O)C(Cl)Cl)c2)on1` [Compound 153, 2,2-Dichloro-N-[3-[3-(2-fluoro-6-methylsulfonyl)phenyl-5-isoxazolyl]phenyl]Acetamide], the IC50 is more than 10 µM. Consider `O=C(O)c1ccccc1-c1cc(-c2cccc(NC(=O)C(Cl)Cl)c2)on1` [Compound 157, 2,2-Dichloro-N-[3-[3-(2-carboxyphenyl)-5-isoxazolyl]phenyl]Acetamide], for which, for the setting “Hepatitis C virus”, the IC50 was more than 10 µM.

In the case of `O=C(Nc1cc(-c2cc(-c3c(Cl)cccc3Cl)no2)ccc1N1CCOCC1)C(Cl)Cl` [Compound 169], the IC50 was more than 10 µM.

For `O=C(Nc1cc(-c2cc(-c3c(Cl)cccc3Cl)no2)ccc1OCCN1CCOCC1)C(Cl)Cl` [Compound 171, 2,2-Dichloro-N-[3-[3-(2,6-dichlorophenyl)-5-isoxazolyl]-6-(N-morpholino-2-ethyleneoxy)phenyl]Acetamide], the IC50 was more than 10 µM. For `COc1ccc(-c2cc(-c3c(Cl)cccc3Cl)no2)cc1NC(=O)C(Cl)Cl` [Compound 173, 2,2-Dichloro-N-[3-[3-(2,6-dichlorophenyl)-5-isoxazolyl]-6-methoxyphenyl]Acetamide], the IC50 (Hepatitis C virus) was less than 10 µM. `O=C(Nc1cccc(-c2cc(-c3c(Cl)cccc3N3CCOCC3)no2)c1)C(Cl)Cl` [Compound 500]: the IC50 was less than 10 µM. The same measure, in the same setting: next, `O=C(Nc1cccc(-c2cc(-c3c(Cl)cccc3N3CCN(c4ccccn4)CC3)no2)c1)C(Cl)Cl` [Compound 501]: less than 10 µM; `O=C(Nc1cccc(-c2cc(-c3c(Cl)cccc3N3CCCCC3)no2)c1)C(Cl)Cl` [Compound 503]: less than 10 µM. Same read-out and setting: in the case of `NC1CCN(c2cccc(Cl)c2-c2cc(-c3cccc(NC(=O)C(Cl)Cl)c3)on2)C1` (centres unmarked) [Compound 504] it was less than 10 µM.

`CCNc1cccc(Cl)c1-c1cc(-c2cccc(NC(=O)C(Cl)Cl)c2)on1` [Compound 507]: the IC50 is less than 10 µM. Same read-out and setting: next, `CCN(CC)c1cccc(Cl)c1-c1cc(-c2cccc(NC(=O)C(Cl)Cl)c2)on1` [Compound 508]: less than 10 µM; `CC(C)(C)OC(=O)N1CCN(c2cccc(Cl)c2-c2cc(-c3cccc(NC(=O)C(Cl)Cl)c3)on2)CC1` [Compound 510]: less than 10 µM; `O=C(Nc1cccc(-c2cc(-c3c(Cl)cccc3N3CCNCC3)no2)c1)C(Cl)Cl` [Compound 511]: less than 10 µM. Still for that read-out and setting: next, `[N-]=[N+]=Nc1cccc(Cl)c1-c1cc(-c2cccc(NC(=O)C(Cl)Cl)c2)on1` [Compound 512]: less than 10 µM; `O=C(Nc1cccc(-c2cc(-c3c(Cl)cccc3N3CCN(C(=O)c4ccccn4)CC3)no2)c1)C(Cl)Cl` [Compound 513]: less than 10 µM. As to `O=C(Nc1cccc(-c2cc(-c3c(Cl)cccc3N3CCN(S(=O)(=O)c4ccccc4)CC3)no2)c1)C(Cl)Cl` [Compound 514], the IC50 is less than 10 µM. Still for that read-out and setting: in the case of `O=C(Nc1cccc(-c2cc(-c3c(Cl)cccc3N3CCN(c4cnccn4)CC3)no2)c1)C(Cl)Cl` [Compound 515] it was less than 10 µM; in that of `O=C(Nc1cccc(-c2cc(-c3c(Cl)cccc3N3CCN(c4ccccc4)CC3)no2)c1)C(Cl)Cl` [Compound 516], less than 10 µM; in that of `O=C(Nc1cccc(-c2cc(-c3c(Cl)cccc3N3CCN(c4ncccn4)CC3)no2)c1)C(Cl)Cl` [Compound 517], less than 10 µM. Still for that read-out and setting: in the case of `O=C(Nc1cccc(-c2cc(-c3c(Cl)cccc3N3CCN(C(=O)c4ccco4)CC3)no2)c1)C(Cl)Cl` [Compound 519] it was less than 10 µM; in that of `O=C(Nc1cccc(-c2cc(-c3c(N4CCN(c5ccccn5)CC4)cccc3C(F)(F)F)no2)c1)C(Cl)Cl` [Compound 520], less than 10 µM.

Turning to `O=C(Nc1cccc(-c2cc(-c3c(F)cccc3N3CCN(c4ccccn4)CC3)no2)c1)C(Cl)Cl` [Compound 521], the IC50 was less than 10 µM.

For `O=C(Nc1cccc(-c2cc(-c3c(Cl)cccc3N3CCN(Cc4cccnc4)CC3)no2)c1)C(Cl)Cl` [Compound 522], the IC50 is less than 10 µM. The same measure, in the same setting: next, `O=C(Nc1cccc(-c2cc(-c3c(Cl)cccc3N3CCCN(c4ccccn4)CC3)no2)c1)C(Cl)Cl` [Compound 523]: less than 10 µM; `COc1cccc(N2CCN(c3cccc(Cl)c3-c3cc(-c4cccc(NC(=O)C(Cl)Cl)c4)on3)CC2)c1` [Compound 524]: less than 10 µM; `O=C(Nc1cccc(-c2cc(-c3c(Cl)cccc3N3CCN(Cc4ccccn4)CC3)no2)c1)C(Cl)Cl` [Compound 526]: less than 10 µM.
